Test results published in patent publication US12486300B2, “Mithramycin oxime derivatives having increased selectivity and anti-cancer activity” (University of Kentucky Research Foundation, priority 2018, dated 2025).

Tests used:
[1] = IV bolus pharmacokinetics in monkey; format: in vivo; details: single monkey, IV bolus 10 mg/kg, 2-compartment modeling
Description: Reference is made to FIGS. 6A and 6B. MTM and exemplary compound MTM(20) were each administered as an IV bolus injection (10 mg/kg) to assess the pharmacokinetics in a single monkey. Estimation of the area under the curve (AUC) was done by 2-compartment modeling. MTM20 has ˜3-fold lower clearance (CL) than mithramycin, which corresponds to an equivalent increase in exposure as measured by the AUC.

[2] = Maximum tolerated dose, daily×5 schedule; format: in vivo, mice
[3] = test system: TC-32 cells (EWS-FLI1+) subcutaneously implanted; assay: Efficacy studies in mouse xenografts (TC-32); format: in vivo, mice; details: for Significant? survival vs. Vehicle: overall significance level 0.05
Description: Efficacy studies in mouse xenografts. TC-32 cells were suspended in 1:1 (v/v) media: Matrigel on ice and injected subcutaneously into the flank of female immunocompromised athymic nude NU/NU mice at a density of 1.0×10^6 cells per 100 μL. Mice with tumors of at least 75 mm^3 were randomly assigned to treatment groups, n=8-12 mice per group and n=6-10 mice per vehicle control treated group. Tumor volumes were monitored every 2-3 days and mice were euthanized once tumor volumes reached 1500 mm^3. In some experiments, tumors were allowed to grow to 20 mm in one direction prior to animals being removed from the study. Average tumor volume among the replicates were plotted, as well as survival plots, using GraphPad Prism 7.03 software. All animal studies were conducted under approved institutional animal care and use committee (IACUC) protocol.
Reference is made to FIGS. 3A-3G, which include data from an efficacy study involving exemplary compound MTM (20). TC-32 cells (EWS-FLI1+) were subcutaneously implanted in female NU/NU mice. Gray shadding starting at 0 days. indicates dosing window. FIG. 3B includes MTM20 at 21 mg/kg, FIG. 3C includes MTM20 at 15 mg/kg, FIG. 3D includes vehicle (control), FIG. 3E includes MTM (control) at 1 mg/kg, and FIG. 3F includes MTM (contro) at 0.65 mg/kg. Dosing route: IV bolus; Schedule: q2d×8.
Reference is made to FIGS. 4A and 4B, and Table 2, which include data from an efficacy/survival study involving exemplary compound MTM(20). TC-32 cells (EWS-FLI1+) were subcutaneously implanted in female NU/NU mice. FIG. 4A includes survival curves and FIG. 4B includes median survival plots of mice (n=6-7/group).
Further Efficacy Studies. Additional efficacy studies are ongoing with MTM20 at a daily schedule (total of 5 doses).
In comparison, nine of 10 tumor volumes, in the control group have increased by 50% or more and one increased approximately 15% above baseline.
In comparison all tumors in the control group grow by 30% or more relative to baseline.

[4] = test system: TC32 Ewing sarcoma cells, expressing EWS-FLI1; assay: Growth inhibition assay, TC32 cells; format: cell-based; details: ratio of GI50 PC3 to TC32
EWS-FLI1 = target: T1, EWS-FLI1 (Homo sapiens, UniProt Q01543+Q01844); details: Grohar et al. 2011; cited from earlier work
T1 sequence (Q01543 276-373 limits assumed): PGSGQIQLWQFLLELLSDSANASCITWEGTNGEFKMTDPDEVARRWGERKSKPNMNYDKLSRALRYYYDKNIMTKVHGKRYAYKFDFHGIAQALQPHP

[5] = Hematology profile in monkeys; details: IV bolus 15 mg/kg
Description: Reference is made to FIGS. 7A-7F, which include include data for a hematology profile in monkeys. MTM and MTM20 were dosed as an IV bolus injection (10 mg/kg and 15 mg/kg) in two monkeys each to assess toxicity. […] Gray areas are reference values.

Structure (SMILES) | lower clearance (CL) than mithramycin [1] | full MTD of the daily×5 schedule [2] | reduction in tumor volume ([3]; Experiment 1: 14.7 mg/kg (⅔ of MTD), daily schedule 5 doses, 2 days after end of treatment, 7 animals) | tumor volumes decreased, of the original tumor volume ([3]; Experiment 2: 24 mg/kg (full MTD) daily×5, following the 4th dose) | Significant? survival ([3]; MTM20 - 2/3MTD vs. MTM - 2/3MT) | Significant? survival ([3]; MTM20 - 2/3MTD vs. MTM - MTD) | Significant? survival ([3]; MTM20 - MTD vs. MTM20 - 2/3MTD) | Significant? survival ([3]; MTM20 - MTD vs. MTM - 2/3MTD) | Significant? survival ([3]; MTM20 - MTD vs. MTM - MTD) | Significant? survival vs. Vehicle ([3]; at 2/3MTD) | Significant? survival vs. Vehicle ([3]; at MTD) | initial response with new dosing schedules ([3]; daily schedule (5 doses) compared to q2Dx8) | predicted efficacy of standard clinical dosing regimen ([3]; daily×5×2 weeks (qDx5×2w)) | PC:TC32 (cellular selectivity) [4] | potency as inhibitor of EWS-FLI1 in Ewing sarcoma cells (EWS-FLI1) | platelets counts [5] | Significant? survival ([3]; MTM - MTD vs. MTM - 2/3MTD)
COC(=O)C(Cc1c[nH]c2ccccc12)NC(=O)CON=C(C(O)C(C)O)C(OC)C1Cc2cc3cc(OC4CC(OC5CC(O)C(O)C(C)O5)C(O)C(C)O4)c(C)c(O)c3c(O)c2C(=O)C1OC1CC(OC2CC(OC3CC(C)(O)C(O)C(C)O3)C(O)C(C)O2)C(O)C(C)O1 (stereo not shown) [MTM (20)] | ~3 fold | 24 mg/kg | greater than 50% | 10-70% | No | No | No | No | No | Yes | Yes | significantly improved | notably efficacious and potentially curative | 24.5 |  |  | 
CO[C@H](C(=O)[C@@H](O)[C@@H](C)O)[C@@H]1Cc2cc3cc(O[C@H]4C[C@@H](O[C@H]5C[C@@H](O)[C@H](O)[C@@H](C)O5)[C@H](O)[C@@H](C)O4)c(C)c(O)c3c(O)c2C(=O)[C@H]1O[C@H]1C[C@@H](O[C@H]2C[C@@H](O[C@H]3C[C@](C)(O)[C@H](O)[C@@H](C)O3)[C@@H](O)[C@@H](C)O2)[C@H](O)[C@@H](C)O1 [MTM, Mithramycin] |  |  |  |  |  |  |  |  |  | No | No |  |  |  | low-nM | significant reduction in platelets counts | No
